Data published in US8614203B2, “Methods for the treatment of a central nervous system injury via a tapered administration protocol” (Emory University, priority 2005, dated 2013).

Experiments:
[1] = tested on: traumatic brain injury; assay: Example 2: dose response, sticker removal task (sensory neglect) after TBI, cyclodextrin vehicle; type: in vivo
Protocol: […] Pairs of circular adhesive papers (2 cm dia) were attached to the distal-radial areas of each forepaw and the rats' latencies to remove the stimuli were recorded. Each rat was given four trials (2-min ITI) per testing period with a maximum trial length of 2 minutes.
Surgery to induce a traumatic brain injury was performed as outlined in Example 1. Behavior testing using the Morris Water Maize was performed as outlined in Example 1 and the methods for the tactical adhesive removal were performed.

[2] = tested on: p53, active Caspase 3, TNFα and NFκB; assay: Example 3: Western blot of apoptotic and inflammatory proteins; type: in vivo, Sprague-Dawley rats
Protocol: Male Sprague-Dawley rats received either medial frontal cortex injury or sham surgery. Injections were given 1 and 6 hours post-injury, and every 24 hours for 7 days. Treatment groups (n=8) encompassed injured (I) and sham (S) acute withdrawal (AW), tapered withdrawal (TW) and vehicle (V) treatments. TW injections were progressively halved over the final two treatments. Behavioral testing was conducted post-surgery, mid- and post-withdrawal. Activity boxes were used to investigate vertical movements and exploration: Sensory neglect and anxiety behaviors were also analyzed. Brain harvesting was performed at 8 days or 3 weeks post-injury. Perfused tissue sections were analyzed for lesion volume and immunohistochemical response. Fresh brain tissue was flash frozen in chilled 2-methyl butane, and then homogenized for Western blot analysis.

[3] = tested on: GFAP; type: in vivo; details: acute withdrawal, lesion (AWL) vs VL; three weeks post-injury
Source text: 60 male Sprague-Dawley rats weighing 290-310 g at the time of injury were used in this experiment. Food and water were provided ad libidum before and after surgery. Animals were handled and weighed daily from their arrival, seven days pre-surgery, to brain extraction three weeks post-surgery. Animals were handled in squads of 12, with n=10 per experimental condition. All animal procedures were approved by the Emory University Animal Care and Use Committee, Protocol #131-2002.
Isofluorane anesthesia was induced for four minutes and 45 seconds at 5% and maintained at 2.5%. Normal body temperature was maintained with a surgical heating pad placed beneath the sterile dressings. The scalp incision area was shaved and sterilized with iodine and isopropanol. A midline incision was made along the scalp and the fascia cleared to expose the surface of the skull. Medial, lateral, and dorsal stereotaxic coordinates were determined at bregma, and a 5-7 mm diameter bilateral craniotomy was performed mid-sagitally, 3 mm anterior to bregma. […]
All animals were decapitated following a lethal 1 mL injection of Nembutal at three weeks post-injury. […] Thionin-stained sections from 4.2-2.2 mm anterior to bregma were identified and analyzed for lesion area using Kodak ID software. Total brain area was determined by determined by normalizing to the volume of sham brain sections. […]

[4] = tested on: contusion injury; details: following a contusion injury (Roof et al. 1994); cited from earlier work
[5] = tested on: BBB; details: in vitro (Betz et al. 1990); cited from earlier work

## CC(=O)[C@H]1CC[C@H]2[C@@H]3CCC4=CC(=O)CC[C@]4(C)[C@H]3CC[C@]12C [progesterone, pregn-4-ene-3,20-dione]
[1]; all doses (8, 16, 32 mg/kg), initially
  sticker removal task (sensory neglect), initial: initially produce behavioral recovery
[1]; high dose (32 mg/kg)
  sticker removal task (sensory neglect), later course: degraded to lesion control levels
[1]; moderate dose (16 mg/kg), day 21 post-injury
  sticker removal task (sensory neglect), later course: improved to sham levels by day 21 post-injury
[2]; all progesterone treatments (acute and tapered) vs vehicle-only controls
  expression of apoptotic and inflammatory proteins, outcome vs vehicle: all progesterone treatments led to better outcomes compared to vehicle-only controls
[2]; tapered withdrawal (TW)
  apoptosis and inflammation (p53, active Caspase 3, TNFα, NFκB): decreased with TW
[3]
  GFAP immunofluorescence luminosity (reactive astrocytes): upregulated in VL (A) animals over AWL (B) animals
[4]
  post injury cerebral edema: reduces the severity of post injury cerebral edema
[5]
  permeability of the BBB: reduce the permeability of the BBB to macromolecules, but not ions
